The text below walks through data of patent publication US20200080055A1, “COMPOSITIONS AND METHODS FOR GENERATING HAIR CELLS BY UPREGULATING PI3K” (Frequency Therapeutics, Inc., priority 2018, published 2020).

Entries after “also recorded” stand apart in the source; their conditions may differ.

Test [1] has as its system HDAC. The note with it: Table 5; cited from earlier work.
The test system of test [2] is cochlear Lgr5 progenitor cells. The test is described as follows: Lgr5+ assay: expansion and enrichment of cochlear Lgr5 progenitor cells in 3D culture. The format is cell-based, mouse. An excerpt: “Stem Cell Proliferation Assay” as used herein is an assay to determine the capacity for agent(s) to induce the creation of stem cells from a starting cell population. In an exemplary Stem Cell Proliferation Assay, the number of cells for an initial cell population is harvested from a Lgr5-GFP mouse such as a B6.129P2-Lgr5tm1(cre/ERT2)Cle/J mouse (also known as Lgr5-EGFP-IRES-creERT2 or Lgr5-GFP mouse, Jackson Lab Stock No: 008875) between the age of 0 to 5 days, by isolating the organ of Corti sensory epithelium and dissociating the epithelium into single cells. Approximately 5000 cells are entrapped in 40 μl of culture substrate (for example: Matrigel (Corning, Growth Factor Reduced)) and placed at the center of wells in a 24-well plate with 500 μl of an appropriate culture media, growth factors and agent being tested. Appropriate culture media and growth factors include Advanced DMEM/F12 with media Supplements (1×N2, 1×B27, 2 mM Glutamax, 10 mM HEPES, 1 mM N-acetylcysteine, and 100 U/ml Penicillin/[…] Streptomycin) and growth factors (50 ng/ml EGF, 50 ng/ml bFGF, and 50 ng/ml IGF-1) as well as the agent(s) being assessed are added into each well. Cells are cultured for 10 days in a standard cell culture incubator at 37° C. and 5% CO2, with media change every 2 days. The number of Lgr5+ cells is quantified by counting the number of cells identified as Lgr5+ in an In Vitro Lgr5 activity assay. The fraction of cells that are Lgr5+ is quantified by dividing the number of cells identified as Lgr5+ in a cell population by the total number of cells present in the cell population. The number of hair cells in a population may be measured by staining with hair cell marker (e.g., MyosinVIIa), or using an endogenous reporter of hair cell genes (e.g., Pou4f3-GFP, Atoh1-nGFP) and analyzing using flow cytometry. The fraction of cells that are hair cells is quantified by dividing the number of cells identified as hair cells in a cell population by the total number of cells present in the cell population. Gene and/or protein expression and/or activity is measured in this assay using methods known in the art such as by PCR, Nanostring, immunostaining, RNAseq, RNA hybridization, or Western blot analysis.
Neonatal Lgr5-EGFP-IRES-Cre-ER mice (The Jackson Laboratory, strain 8875) were used to analyze the effects of small molecules on cochlear stem cell expansion (see Barker et al., Nature 449, 1003-7 (2007). This strain allowed for visualization and quantification of EGFP cells.
All animal studies were conducted under an approved institutional protocol per National Institutes of Health guidelines. Using neonatal animals, cochleae were dissected and the organ of Corti (sensory epithelium) was separated from the stria vascularis (ion transport epithelium) and the modiolus (nerve tissue). Epithelia were then collected and treated with TrypLE for 15-20 minutes to obtain single cells. The cells were then filtered ([…]) and suspended in a Matrigel (Corning) dome for 3D culture seeded at 0.5 cochlea per well.
Expansion of Lgr5 Cells: Cells were cultured in a 3D system and bathed in a serum free 1:1 mixture of DMEM and F12, supplemented with Glutamax (GIBCO), N2, B27 (Invitrogen), EGF (50 ng/mL; Chemicon), bFGF (50 ng/mL; Chemicon), IGF-1 (50 ng/mL; Chemicon), and small molecules for seven days. Media was changed every other day. Treatments were run in triplicate or quadruplicate.
Lgr5 cells were quantified after 7-10 days. Cell colonies were dissociated into single cells using TrypLE. The cells were then stained with propidium iodide (PI) and analyzed using a flow cytometer to count Lgr5-EGFP cells. The percentage of viable Lgr5 cells was plotted against the concentration in GraphPad Prism.
Organ of Corti are dissected from Lgr5 GFP+ mice and dissociated as single cells as described above. Background media contains the same supplements and growth factors at the same concentrations as described above. […]

For `O=C([O-])CCCc1ccccc1.[Na+]` [Na phenylbutyrate], in test [1], the Class selectivity entry is “Class I >”.
For `CCn1cc(C(=O)O)c(=O)c2c(N)c(F)c(NC3CCCCC3)cc21` [AS1842856], in test [2] (AS1842856 425 nM combined with VPA 1 mM), the “enrichment of Lgr5 cells (percentage)” value is given as “enriched according to percentage”. In addition, the “expansion of cochlear Lgr5+ progenitor cells in culture” value in test [2] (AS1842856 425 nM in background of EFI) was “elicits the expansion”. Further, the “LGR5+ cell growth and enrichment / expansion of cochlear progenitor cells” value in test [2] (AS1842856 concentration series in background of EFI) is “concentration-dependent effects; also recorded: enhances expansion of cochlear progenitor cells”.
`Cc1c[nH]c(-c2cnc(NCCNc3ccc(C#N)cn3)nc2-c2ccc(Cl)cc2Cl)n1` [CHIR99021]: the “expansion and enrichment of cochlear Lgr5 progenitor cells in culture” value in test [2] (CHIR alone (GSK3 inhibition)) is “elicits the expansion and enrichment”.
`CC(C)(C)C(=O)Nc1ccc2c(c1)C(=O)C(=O)c1ccccc1-2` [SF1670]: the “enhancement of CHIR-elicited expansion and enrichment of cochlear Lgr5 progenitor cells” value in test [2] (SF1670 0.1 uM added to CHIR) was “further enhanced”.
Consider VO-Ohpic, for which, in test [2] (VO-Ohpic 3 uM added to CHIR), the “enhancement of CHIR-elicited expansion and enrichment of cochlear Lgr5 progenitor cells” value is reported as “enhanced”.
